Reference: patent US6710051B1, “Screening method” (Klaus Trier APS, priority 1997, dated 2004)
Marks after values point to notes of the source that are not given here.

Columns and labels:
sclera [1] = experiment: Content of collagen specific amino acids in rabbit sclera after long term treatment (HPLC); type: in vivo; design: Hydroxylysine Decr. compared to the control / Hydroxyproline Inc. compared to the control / Proline Inc. compared to the control: concentration or dose not given beside the values; settings: for Hydroxylysine Decr. compared to the control / Hydroxyproline Inc. compared to the control / Proline Inc. compared to the control / Hydroxylysine content / Hydroxyproline content / Proline content: 3 months treatment; for Hydroxylysine content / Hydroxyproline content / Proline content: dried defatted weight
Source text: (§1) Test animal: Charles River Deutschland Chinchilla Bastard female rabbits.
(§2) Number of animals: 6 test animals and 6 control animals
(§3) Age: approximately 8 weeks at the commencement of the test.
(§4) Weight: 1.4-1.9 kg at the commencement of the test.
(§5) Cages: The animals live in identical cages made of stainless steel (Scanbur), length 1 m, depth 0.52 m, height 0.5 m.
(§6) Amount of food: Increasing from 75 g per day at the commencement of the test up to 130 g after three months.
(§7) Experimental drinking water 1 contained theophyllin in a dose equivalent of 27 mg increasing to 63 mg (added as theophyllin and ethylendiamin in a dose of 33 to 77 mg) daily.
(§8) Experimental drinking water 2 contained fluoxetine (Fontex, Lilly) in a dose equivalent of 2 mg increasing to 5 mg daily.
(§9) Experimental diet 3 was added 7-methylxanthine 500 mg per kg Stanrab standard diet equivalent of a daily 7-methylxanthine dose of […] per day.
(§10) Experimental diet 4 was added theobromine (3,7-dimethylxanthine) 500 mg per kg Stanrab standard diet equivalent of a daily theobromine dose of […] per day.
(§11) Experimental diet 5 was added acetazolamide 500 mg per kg Stanrab standard diet equivalent of a daily acetazolamide dose of […] per day.
(§12) Collection of sample: Sclera biopsies are taken for analysis for proteoglycane content, distribution between the individual glycosaminoglycanes and the content of collagen specific amino acids. Four tests from each animal: Two samples from the front, 5×10 mm along limbus (without cornea), and two samples from the back, punch 10 mm corresponding to the center of the retina. Furthermore, tests are taken for electron microscopy (EM) from two animals in each group.
Samples for analysis for content of collagen specific amino acids are frozen down immediately. The amino acid content is determined by HPLC-chromatography.
The dried tissue with constant weight is minced into very fine particles with a pair of scissors, approximately 20 per piece of tissue. The small flakes from each original piece of tissue ate divided into two equally sized portions, one of which is employed for hydrolysis and the other one is kept for reference. The constant dry weight of each portion is known.
From each resolubilized hydrolysate 3 aliquots of each 8 microliters and 3 aliquots of 40 μl are taken and transferred to separate polypropylene tubes in which 20 microliters of a solution of internal standard substances citrulline and 2 aminobutyric acid were added where the further method takes place.
The taken aliquots from hydrolysate are dried in a vacuum exsiccator at 35° C. over night and subsequently submitted to derivatization with phenylisothiocyanate.
The resulting phenylisothiocarbamates are transferred to the HPLC instrument for separation and quantification. A new set of calibration curves is established, 1 curve for each of the 19 amino acids, prior to the analysis of the samples from one investigation.
The concentration range of standard samples exceed the ranges of amino acid concentrations in the unknowns. Hydroxyproline and proline are quantitated from the 8 microliter aliquots, and hydroxylysine is quantitated from the 40 microliter aliquots.

sclera [2] = experiment: Content of proteoglycanes in rabbit sclera after long term treatment (alcian blue method); type: in vivo; design: Proteoglycanes Decrease compared to the control, anterior sclera / Proteoglycanes Increase compared to the control, anterior sclera / Proteoglycanes Increase compared to the control, posterior sclera / Effect on proteoglycan content of posterior sclera in % compared to control: concentration or dose not given beside the values; settings: for Content of proteoglycanes, anterior sclera / Content of proteoglycanes, posterior sclera: wet weight
Procedure: as §1, §2, §3, §4
Lightness/Darkness cycle: 12/12 hours.
as §5
Food: Stanrab standard diet from Special Diet Services, P.O. Box 705, Witham Essex CM8 3AD, UK (further details, see Table A).
as §6, §7, §8
Experimental diet 2 was added 4.5 g L-cystine per kg Stanrab standard diet equivalent of a daily L-cystine dose of 338 mg increasing to 585 mg per day. With respect to the supplement of L-cystine, the normal intake per day of the standard diet is 218 mg increasing to 377 mg L-cystine.
as §9, §10, §11
Experimental diet 6 was added 4.5 g L-ornithine per kg Stanrab standard diet equivalent of a daily L-ornithine dose of 338 mg increasing to 585 mg per day.
as §12
Analyses: Samples for proteoglycane analysis are frozen down immediately. The samples are analyzed by Wieslab AB, IDEON, S-223 70 Lund, Sweden, by means of a method which has been described by Björnsson, S., Analytical Biochemistry 210, 282-291 (1993). The method comprises extraction by 20 microliters of 4 M guanidine-HCl, 50 Mm sodium acetate per mg wet weight over night by room temperatures. The extracts are centrifuged in order to remove debris. 20 microliters of supernatant are reduced 1/10 in extraction buffer and 20 microliters of reduced supernatant are mixed with 10 microliters of reagent 1 (see Björnsson, S., Analytical biochemistry 210, 282-291 (1993)) on a shaking table for 15 minutes. 200 microliters of reagent 2 are added and the tests are incubated for 60 minutes in order to precipitate the proteoglycanes. The proteoglycane/alcian blue precipitate is transferred to 96-wells MillBlotD apparatus and washed with 2×200 microliters of 40% DMSO, 0.05 M of MgCl2. The colour intensity of the wells are quantitated by microtech E3 scanner and Scan Analysis software (Biosoft, Cambridge, U.K.). Chrondroitine-6-sulphate (Sigma C4384) is used as the calibrator. All samples are analyzed in duplicate.
The results of longterm treatment with each of the 8 substances specified above are shown in Example 2 (treatment for 12 weeks) and Example 4 (treatment for 10 weeks).

skeletal RyR = biological target: T1, skeletal RyR (Oryctolagus cuniculus, UniProt P11716); settings: cited from earlier work
T1 construct: Structure-activity Relationship of Xanthines and Skeletal Muscle Ryanodine Receptor/Ca^2+ Release Channel; from tissue; host or cells: Skeletal muscle

sclera [3] = experiment: Content of collagen specific amino acids in rabbit sclera after long term treatment (HPLC); type: in vivo; settings: dried defatted weight, 10 weeks treatment (Example 4)
[4] = posterior sclera, 10 weeks treatment (Example 4)

T1 sequence (P11716 whole entry): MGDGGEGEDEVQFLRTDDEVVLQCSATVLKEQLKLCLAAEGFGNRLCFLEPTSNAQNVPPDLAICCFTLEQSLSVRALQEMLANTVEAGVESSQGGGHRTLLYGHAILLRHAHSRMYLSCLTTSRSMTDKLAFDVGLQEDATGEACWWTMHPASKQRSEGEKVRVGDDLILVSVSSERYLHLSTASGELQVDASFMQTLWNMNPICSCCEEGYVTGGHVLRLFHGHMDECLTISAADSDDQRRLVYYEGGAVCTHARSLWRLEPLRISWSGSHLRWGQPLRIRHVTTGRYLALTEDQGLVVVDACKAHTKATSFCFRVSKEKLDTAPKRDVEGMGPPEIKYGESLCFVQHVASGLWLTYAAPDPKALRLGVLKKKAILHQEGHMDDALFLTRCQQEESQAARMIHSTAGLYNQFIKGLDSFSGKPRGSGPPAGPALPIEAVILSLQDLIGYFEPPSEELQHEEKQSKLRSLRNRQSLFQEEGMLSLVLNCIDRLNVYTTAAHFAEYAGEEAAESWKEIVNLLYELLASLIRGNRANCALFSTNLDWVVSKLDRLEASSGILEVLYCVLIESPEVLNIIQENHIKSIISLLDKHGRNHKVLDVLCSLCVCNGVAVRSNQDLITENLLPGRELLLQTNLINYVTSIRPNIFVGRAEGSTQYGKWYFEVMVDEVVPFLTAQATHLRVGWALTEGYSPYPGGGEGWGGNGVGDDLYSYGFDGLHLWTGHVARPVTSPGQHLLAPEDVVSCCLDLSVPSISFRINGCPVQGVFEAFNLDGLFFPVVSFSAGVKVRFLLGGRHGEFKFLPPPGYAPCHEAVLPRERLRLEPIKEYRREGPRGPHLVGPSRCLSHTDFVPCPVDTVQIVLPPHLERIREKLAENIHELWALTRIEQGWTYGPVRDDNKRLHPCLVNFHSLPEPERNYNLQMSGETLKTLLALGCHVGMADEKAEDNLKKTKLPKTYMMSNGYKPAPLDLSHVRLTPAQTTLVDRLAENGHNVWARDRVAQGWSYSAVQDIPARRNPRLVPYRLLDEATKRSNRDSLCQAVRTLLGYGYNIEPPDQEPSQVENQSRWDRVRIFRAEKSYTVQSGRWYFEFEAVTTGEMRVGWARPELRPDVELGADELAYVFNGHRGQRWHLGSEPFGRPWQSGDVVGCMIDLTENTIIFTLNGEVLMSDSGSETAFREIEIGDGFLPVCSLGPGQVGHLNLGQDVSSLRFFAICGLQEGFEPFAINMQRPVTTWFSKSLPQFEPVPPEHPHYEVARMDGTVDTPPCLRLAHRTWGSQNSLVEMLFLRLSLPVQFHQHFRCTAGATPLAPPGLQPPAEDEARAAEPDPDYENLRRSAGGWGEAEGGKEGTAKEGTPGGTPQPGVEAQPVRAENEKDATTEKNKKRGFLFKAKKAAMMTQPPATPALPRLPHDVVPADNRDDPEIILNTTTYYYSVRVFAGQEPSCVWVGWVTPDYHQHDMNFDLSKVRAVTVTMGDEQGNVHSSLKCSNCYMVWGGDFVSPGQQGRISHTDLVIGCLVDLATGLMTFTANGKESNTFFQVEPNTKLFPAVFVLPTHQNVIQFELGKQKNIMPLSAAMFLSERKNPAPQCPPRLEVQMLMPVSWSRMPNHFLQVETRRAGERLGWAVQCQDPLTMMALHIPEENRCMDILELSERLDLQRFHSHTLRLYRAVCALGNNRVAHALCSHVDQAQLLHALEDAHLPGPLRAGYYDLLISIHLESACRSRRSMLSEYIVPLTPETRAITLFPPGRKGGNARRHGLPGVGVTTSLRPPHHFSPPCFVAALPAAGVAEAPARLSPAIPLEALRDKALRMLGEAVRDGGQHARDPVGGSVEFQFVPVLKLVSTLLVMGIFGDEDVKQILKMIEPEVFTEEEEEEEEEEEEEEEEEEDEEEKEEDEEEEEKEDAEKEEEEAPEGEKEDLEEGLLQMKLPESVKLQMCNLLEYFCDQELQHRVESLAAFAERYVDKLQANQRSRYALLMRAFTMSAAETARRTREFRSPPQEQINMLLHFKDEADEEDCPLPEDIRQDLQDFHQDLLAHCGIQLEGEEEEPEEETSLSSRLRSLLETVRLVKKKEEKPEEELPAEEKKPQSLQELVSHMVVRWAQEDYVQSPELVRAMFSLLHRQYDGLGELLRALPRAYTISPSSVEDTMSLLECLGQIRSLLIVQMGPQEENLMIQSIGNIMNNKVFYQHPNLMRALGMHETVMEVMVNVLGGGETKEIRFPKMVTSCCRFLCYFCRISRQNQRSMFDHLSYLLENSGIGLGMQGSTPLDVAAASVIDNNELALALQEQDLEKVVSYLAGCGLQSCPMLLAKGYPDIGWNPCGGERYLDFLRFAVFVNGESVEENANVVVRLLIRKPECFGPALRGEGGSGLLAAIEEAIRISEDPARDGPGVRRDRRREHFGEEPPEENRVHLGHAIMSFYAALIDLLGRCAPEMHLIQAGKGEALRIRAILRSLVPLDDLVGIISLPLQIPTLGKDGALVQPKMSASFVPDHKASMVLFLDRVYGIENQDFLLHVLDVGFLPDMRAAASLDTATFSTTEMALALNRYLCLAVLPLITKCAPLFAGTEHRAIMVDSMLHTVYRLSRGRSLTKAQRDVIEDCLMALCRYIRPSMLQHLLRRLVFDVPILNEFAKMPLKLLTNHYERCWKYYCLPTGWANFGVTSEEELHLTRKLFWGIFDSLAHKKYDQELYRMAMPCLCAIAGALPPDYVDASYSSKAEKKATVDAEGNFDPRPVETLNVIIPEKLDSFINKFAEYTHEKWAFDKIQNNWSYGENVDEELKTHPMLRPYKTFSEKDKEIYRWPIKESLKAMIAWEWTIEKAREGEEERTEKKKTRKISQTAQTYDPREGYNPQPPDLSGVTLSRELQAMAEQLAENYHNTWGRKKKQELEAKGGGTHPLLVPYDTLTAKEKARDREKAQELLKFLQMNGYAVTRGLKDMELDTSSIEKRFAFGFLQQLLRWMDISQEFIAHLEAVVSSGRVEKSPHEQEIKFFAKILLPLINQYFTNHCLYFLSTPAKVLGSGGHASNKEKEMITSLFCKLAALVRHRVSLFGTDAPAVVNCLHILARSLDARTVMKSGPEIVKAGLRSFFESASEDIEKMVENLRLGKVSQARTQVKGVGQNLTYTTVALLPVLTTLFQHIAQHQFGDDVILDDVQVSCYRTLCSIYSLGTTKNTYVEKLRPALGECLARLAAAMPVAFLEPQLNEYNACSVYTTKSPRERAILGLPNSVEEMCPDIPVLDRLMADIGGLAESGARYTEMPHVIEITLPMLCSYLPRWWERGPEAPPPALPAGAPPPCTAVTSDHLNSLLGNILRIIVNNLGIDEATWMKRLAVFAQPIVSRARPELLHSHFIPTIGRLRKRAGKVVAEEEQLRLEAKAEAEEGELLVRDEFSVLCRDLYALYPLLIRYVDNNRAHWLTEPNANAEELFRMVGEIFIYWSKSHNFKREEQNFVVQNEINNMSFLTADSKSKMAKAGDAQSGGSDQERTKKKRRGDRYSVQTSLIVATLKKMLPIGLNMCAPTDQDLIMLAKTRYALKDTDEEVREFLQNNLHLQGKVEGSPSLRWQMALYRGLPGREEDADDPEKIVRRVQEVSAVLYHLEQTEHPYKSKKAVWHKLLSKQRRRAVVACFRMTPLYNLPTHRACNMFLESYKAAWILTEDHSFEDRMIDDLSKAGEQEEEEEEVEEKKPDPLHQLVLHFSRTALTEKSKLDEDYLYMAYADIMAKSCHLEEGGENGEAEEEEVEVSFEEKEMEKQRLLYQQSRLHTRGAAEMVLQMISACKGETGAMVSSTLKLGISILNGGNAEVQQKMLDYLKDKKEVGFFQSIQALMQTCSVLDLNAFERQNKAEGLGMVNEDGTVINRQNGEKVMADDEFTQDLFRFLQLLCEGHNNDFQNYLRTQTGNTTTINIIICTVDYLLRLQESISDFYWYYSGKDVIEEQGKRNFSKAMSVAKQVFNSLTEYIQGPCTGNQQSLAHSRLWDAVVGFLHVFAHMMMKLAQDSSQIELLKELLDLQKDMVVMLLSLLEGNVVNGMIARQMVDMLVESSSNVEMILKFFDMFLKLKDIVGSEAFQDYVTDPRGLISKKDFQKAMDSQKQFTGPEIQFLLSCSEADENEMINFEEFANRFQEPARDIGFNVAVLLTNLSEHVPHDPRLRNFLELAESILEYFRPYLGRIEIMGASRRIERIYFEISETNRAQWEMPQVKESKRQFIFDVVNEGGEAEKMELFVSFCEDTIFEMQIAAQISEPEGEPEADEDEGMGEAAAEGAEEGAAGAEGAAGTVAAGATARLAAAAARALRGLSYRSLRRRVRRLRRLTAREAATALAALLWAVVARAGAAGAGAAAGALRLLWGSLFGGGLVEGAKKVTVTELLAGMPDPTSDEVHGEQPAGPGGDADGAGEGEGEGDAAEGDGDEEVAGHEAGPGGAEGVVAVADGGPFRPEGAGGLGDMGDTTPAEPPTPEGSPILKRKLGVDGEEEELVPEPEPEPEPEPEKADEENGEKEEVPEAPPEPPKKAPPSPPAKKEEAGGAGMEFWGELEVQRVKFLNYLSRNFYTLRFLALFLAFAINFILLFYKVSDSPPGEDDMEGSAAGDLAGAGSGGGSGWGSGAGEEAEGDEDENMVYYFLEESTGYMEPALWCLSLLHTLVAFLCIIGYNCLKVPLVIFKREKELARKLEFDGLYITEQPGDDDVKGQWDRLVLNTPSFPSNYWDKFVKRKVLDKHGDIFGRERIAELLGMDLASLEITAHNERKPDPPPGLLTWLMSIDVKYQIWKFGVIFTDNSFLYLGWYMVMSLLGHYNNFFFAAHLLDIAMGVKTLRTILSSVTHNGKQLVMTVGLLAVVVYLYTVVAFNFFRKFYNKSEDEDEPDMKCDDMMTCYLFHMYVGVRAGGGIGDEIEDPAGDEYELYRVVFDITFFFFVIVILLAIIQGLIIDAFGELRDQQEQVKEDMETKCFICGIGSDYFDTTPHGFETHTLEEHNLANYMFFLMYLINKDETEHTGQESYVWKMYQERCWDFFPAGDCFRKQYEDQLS

Structure (SMILES) | Hydroxylysine content (sclera [1]; anterior sclera) | Hydroxyproline content (sclera [1]; anterior sclera) | Proline content (sclera [1]; anterior sclera) | Hydroxyproline Inc. compared to the control (sclera [1]; posterior sclera) [%] | Proline Inc. compared to the control (sclera [1]; posterior sclera) [%] | Hydroxylysine content (sclera [1]; posterior sclera) | Hydroxyproline content (sclera [1]; posterior sclera) | Proline content (sclera [1]; posterior sclera) | Content of proteoglycanes, anterior sclera (sclera [2]; 3 months treatment) | Content of proteoglycanes, posterior sclera (sclera [2]; 3 months treatment) | Content of proteoglycanes, anterior sclera (sclera [2]; 10 weeks treatment (Example 4)) | Content of proteoglycanes, posterior sclera (sclera [2]; 10 weeks treatment (Example 4)) | Hydroxylysine content (sclera [3]; anterior sclera) | Hydroxyproline content (sclera [3]; anterior sclera) | Proline content (sclera [3]; anterior sclera) | Hydroxylysine content (sclera [3]; posterior sclera) | Hydroxyproline content (sclera [3]; posterior sclera) | Proline content (sclera [3]; posterior sclera) | further results
Cn1c(=O)c2[nH]cnc2n(C)c1=O.Cn1c(=O)c2[nH]cnc2n(C)c1=O.NCCN [Teofylamin] | 28 +/− 10 nanomol/mg tissue | 653 +/− 39 nanomol/mg tissue | 958 +/− 23 nanomol/mg tissue | 18 | 11 | 28 +/− 15 nanomol/mg tissue | 643 +/− 74 nanomol/mg tissue | 902 +/− 53 nanomol/mg tissue | 2.4 +/− 0.5 μg PG/mg tissue | 2.7 +/− 0.3 μg PG/mg tissue | – | – | – | – | – | – | – | – | Hydroxylysine Decr. compared to the control (sclera [1]; anterior sclera): 32%; Hydroxyproline Inc. compared to the control (sclera [1]; anterior sclera): 8%; Proline Inc. compared to the control (sclera [1]; anterior sclera): 8%; Hydroxylysine Decr. compared to the control (sclera [1]; posterior sclera): 35%; Proteoglycanes Decrease compared to the control, anterior sclera (sclera [2]; 3 months treatment): 11%
Cn1cnc2[nH]c(=O)[nH]c(=O)c21 [7-Methylxanthine] | – | – | – | – | – | – | – | – | – | – | 2.5 +/− 0.5 μg PG/mg tissue | 3.3 +/− 0.3 μg PG/mg tissue | 45 +/− 3 nanomol/mg tissue | 667 +/− 73 nanomol/mg tissue | 951 +/− 111 nanomol/mg tissue | 44 +/− 7 nanomol/mg tissue | 719 +/− 81* nanomol/mg tissue | 1018 +/− 108* nanomol/mg tissue | content of hydroxyproline and proline in posterior sclera (in words) (sclera [1]; Example 4, versus control): significantly higher content; Hydroxylysine Inc. (sclera [1]; [4]): 7%; Hydroxyproline Inc. (sclera [1]; [4]): 16%; Proline Inc. (sclera [1]; [4]): 10%; Proteoglycanes Decrease, anterior sclera (sclera [2]; 10 weeks treatment (Example 4)): 14%; Proteoglycanes Increase, posterior sclera (sclera [2]; 10 weeks treatment (Example 4)): 14%; content of proteoglycans in posterior sclera (in words) (sclera [2]; Example 4, versus control): near significant increase; Effect on proteoglycan content of posterior sclera in % compared to control (sclera [2]; rabbit, Examples 2 and 4): 114%; Effect on [3H ryanodine binding in % compared to control (skeletal RyR; values of Table 3 without AMP/AMPPCP, caffeine represented by 1,7-dimethylxanthine): 204%; Bound [3H]ryanodine % of control (skeletal RyR; xanthine […], 1 mmol/l AMPPCP, control (-xanthine) = 100): 225 ± 11 % of control; Bound [3H]ryanodine pmol/mg protein (skeletal RyR; xanthine […], 1 mmol/l AMPPCP, means±SD of 3-4 experiments): 3.80 ± 0.19 pmol/mg protein; Bound [3H]ryanodine, % of control, +1 mmol/l AMPPCP (skeletal RyR; xanthine […], +1 mmol/l AMPPCP, control (-xanthine) = 100): 225 ± 11 % of control; Bound [3H]ryanodine, % of control, +3 mmol/l AMP (skeletal RyR; xanthine […], +3 mmol/l AMP, control (-xanthine) = 100): 214 ± 15 % of control
N[C@@H](CSSC[C@H](N)C(=O)O)C(=O)O [L-cystine] | 45 +/− 10 nanomol/mg tissue | 599 +/− 41 nanomol/mg tissue | 885 +/− 22 nanomol/mg tissue | 9 | 7 | 43 +/− 8 nanomol/mg tissue | 596 +/− 39 nanomol/mg tissue | 867 +/− 14 nanomol/mg tissue | 3.5 +/− 0.5* μg PG/mg tissue | 3.5 +/− 0.4* μg PG/mg tissue | – | – | – | – | – | – | – | – | Proteoglycanes Increase compared to the control, anterior sclera (sclera [2]; 3 months treatment): 29%; Proteoglycanes Increase compared to the control, posterior sclera (sclera [2]; 3 months treatment): 29%
CC(=O)Nc1nnc(S(N)(=O)=O)s1 [Acetazolamide, acetazolamide] | – | – | – | – | – | – | – | – | – | – | 2.9 +/− 0.4 μg PG/mg tissue | 2.8 +/− 0.8 μg PG/mg tissue | 41 +/− 4 nanomol/mg tissue | 596 +/− 27* nanomol/mg tissue | 843 +/− 47* nanomol/mg tissue | 38 +/− 6 nanomol/mg tissue | 563 +/− 91 nanomol/mg tissue | 781 +/− 125 nanomol/mg tissue | content of hydroxyproline and proline in anterior sclera (in words) (sclera [1]; Example 4, versus control, significantly): reduced; Hydroxylysine Decr. (sclera [1]; [4]): 7%; Hydroxyproline Decr. (sclera [1]; [4]): 10%; Proline Decr. (sclera [1]; [4]): 10%
